63 compounds from patent US11401254B2, “Substituted thiophenecarboxamides and analogues as antibacterials agents” (Bayer Aktiengesellschaft, priority 2018, dated 2022) can be followed below.

Structures are written as SMILES.

As usually defined, the chromatographic logP is a lipophilicity value derived from retention on a column. A higher chromatographic logP goes with higher lipophilicity.

Test system in the first data set: not listed separately
Nature of the data set: Log P by HPLC on reversed phase columns (EEC directive 79/831 Annex V.A8). The note with it: method [a]: LC-UV, acidic range, 0.1% formic acid in water and acetonitrile as eluent. Format: physicochemical. How it is done:
In the above tables, measurement of Log P values was performed according to EEC directive 79/831 Annex V.A8 by HPLC (High Performance Liquid Chromatography) on reversed phase columns with the following methods: • ^[a]
If more than one Log P value is available within the same method, all the values are given and separated by “+”.
Calibration was done with straight-chain alkan2-ones (with 3 to 16 carbon atoms) with known Log P values (measurement of Log P values using retention times with linear interpolation between successive alkanones). Lambda-max-values were determined using UV-spectra from 200 nm to 400 nm and the peak values of the chromatographic signals.
As for `Cc1c(C(=O)NC(C(=O)OC2COC2)C(C)C)sc(Br)c1Br` (stereo not drawn) [I.16], the LogP is 3.58^[a]. Same read-out and setting: with `CCOC(=O)C(NC(=O)c1sc(Br)c(Br)c1C)C(C)C` (stereo not drawn) [I.62] the figure was 4.37^[a]; with `COC(=O)C(NC(=O)c1sc(Br)c(Br)c1C)C(C)C` (stereo not drawn) [I.63], 3.91^[a]; with `CCOC(=O)C(Cc1ccccc1)NC(=O)c1sc(Br)c(Br)c1C` (stereo not drawn) [I.65], 4.59^[a]. Still for that read-out and setting: with `CCOC(=O)C(CC(C)C)NC(=O)c1sc(Br)c(Br)c1C` (stereo not drawn) [I.68] the figure was 4.66^[a]; with `CCOC(=O)C(CC(C)C)NC(=O)c1sc(Br)c(Br)c1C` (stereo not drawn) [I.69], 4.66^[a]; with `COC(=O)C(CCSC)NC(=O)c1sc(Br)c(Br)c1C` (stereo not drawn) [I.70], 3.69^[a]. In the case of `CCOC(=O)C(NC(=O)c1sc(Cl)c(Cl)c1C)c1ccccc1` (stereo not drawn) [I.75], the LogP was 4.37^[a]. Still for that read-out and setting: with `CCOC(=O)C(NC(=O)c1sc(Br)c(Br)c1C)c1ccccc1` (stereo not drawn) [I.76] the figure was 4.44^[a]; with `Cc1c(C(=O)NCC(=O)OC(C)C)sc(Br)c1Br` [I.78], 3.40^[a].

For `Cc1c(C(=O)NCC(=O)O)sc(Cl)c1Cl` [I.80], the LogP was 2.05^[a]. Still for that read-out and setting: with `Cc1c(C(=O)NC(C)C(=O)O)sc(Cl)c1Cl` (stereo not drawn) [I.81] the figure was 2.28^[a]; with `Cc1c(C(=O)NC(C(=O)O)C(C)C)sc(Cl)c1Cl` (stereo not drawn) [I.82], 2.96^[a]; with `CC[C@H](C)[C@H](NC(=O)c1sc(Cl)c(Cl)c1C)C(=O)O` [I.83], 3.31^[a]. Still for that read-out and setting: the value for `Cc1c(C(=O)NC(CC(C)C)C(=O)O)sc(Cl)c1Cl` (stereo not drawn) [I.84] was 3.31^[a]; that for `CSCCC(NC(=O)c1sc(Cl)c(Cl)c1C)C(=O)O` (stereo not drawn) [I.85] was 2.80^[a]; that for `Cc1c(C(=O)NC(Cc2ccccc2)C(=O)O)sc(Cl)c1Cl` (stereo not drawn) [I.86] was 3.31^[a]. Take `CSCCC(NC(=O)c1sc(Br)c(Br)c1C)C(=O)O` (stereo not drawn) [I.87]: the LogP was 2.89^[a]. Still for that read-out and setting: the value for `Cc1c(C(=O)NC(Cc2ccccc2)C(=O)O)sc(Br)c1Br` (stereo not drawn) [I.88] was 3.30^[a]; that for `CC[C@H](C)[C@H](NC(=O)c1sc(Br)c(Br)c1C)C(=O)O` [I.89] was 3.37^[a]. With `COC(=O)C(NC(=O)c1sc(Cl)c(Cl)c1C)C(C)C` (stereo not drawn) [I.91], the LogP was 4.34^[a]. Same read-out and setting: with `CCOC(=O)CNC(=O)c1sc(Br)cc1C` [IXa.02] the figure was 2.39^[a]; with `CCOC(=O)C(NC(=O)c1sc(Br)cc1C)C(C)C` (stereo not drawn) [IXa.03], 3.65^[a]. Still for that read-out and setting: the value for `CCOC(=O)C(Cc1ccccc1)NC(=O)c1sc(Br)cc1C` (stereo not drawn) [IXa.04] was 3.90^[a]; that for `CCOC(=O)C1(NC(=O)c2scc(Br)c2C)CC1` [IXb.01] was 2.49^[a]; that for `COC(=O)CNC(=O)c1sc(Cl)c(Cl)c1I` [VIa.02] was 2.90^[a]. Still for that read-out and setting: with `COC(=O)CNC(=O)c1sc(Br)c(Br)c1I` [VIa.03] the figure was 2.96^[a]; with `CCOC(=O)C1(NC(=O)c2sc(Cl)c(Cl)c2I)CC1` [VIa.05], 3.39^[a]. As for `CCOC(=O)CNC(=O)c1sc(Br)c(Br)c1I` [VIa.10], the LogP was 3.35^[a]. For the compound `CCOC(=O)CNC(=O)c1sc(Cl)c(Cl)c1I` [VIa.12], the LogP was 3.31^[a]. On the same count and under the same terms, with `O=C(O)CNC(=O)c1sc(Cl)c(Cl)c1I` [VIa.13] the figure was 2.21^[a]; with `CCOC(=O)C(Cc1ccccc1)NC(=O)c1sc(Br)c(Br)c1I` (stereo not drawn) [VIa.14], 4.93^[a]. `CCOC(=O)C(CC(C)C)NC(=O)c1sc(Br)c(Br)c1I` (stereo not drawn) [VIa.15]: the LogP is 5.01^[a]. For the compound `CCOC(=O)C(CCSC)NC(=O)c1sc(Br)c(Br)c1I` (stereo not drawn) [VIa.16], the LogP was 4.37^[a]. Same read-out and setting: the value for `CCOC(=O)C(NC(=O)c1sc(Cl)c(Cl)c1Br)C(C)C` (stereo not drawn) [VIa.17] was 4.88^[a]; that for `CCOC(=O)C(CC(C)C)NC(=O)c1sc(Cl)c(Cl)c1Br` (stereo not drawn) [VIa.18] was 5.17^[a].

In the case of `CCOC(=O)C(CCSC)NC(=O)c1sc(Cl)c(Cl)c1Br` (stereo not drawn) [VIa.19], the LogP was 4.46^[a]. Still for that read-out and setting: with `CCOC(=O)C(Cc1ccccc1)NC(=O)c1sc(Cl)c(Cl)c1Br` (stereo not drawn) [VIa.20] the figure was 5.01^[a]; with `CCOC(=O)C(NC(=O)c1sc(Cl)c(Cl)c1I)C(C)C` (stereo not drawn) [VIa.21], 4.85^[a]. Same read-out and setting: with `CCOC(=O)C(CC(C)C)NC(=O)c1sc(Cl)c(Cl)c1I` (stereo not drawn) [VIa.22] the figure was 5.08^[a]. As to `CCOC(=O)C(CCSC)NC(=O)c1sc(Cl)c(Cl)c1I` (stereo not drawn) [VIa.23], the LogP is 4.40^[a].

Regarding `CCOC(=O)C(Cc1ccccc1)NC(=O)c1sc(Cl)c(Cl)c1I` (stereo not drawn) [VIa.24], the LogP was 5.00^[a]. Same read-out and setting: the value for `CCOC(=O)c1sc(NC(=O)OC(C)(C)C)c(Br)c1C` [XIIIa.01] was 4.62^[a].

Still in this data set, the particulars now being: reversed phase HPLC columns, method [a]: LC-UV, acidic range, 0.1% formic acid in water and acetonitrile as eluent.
As to `Cc1c(C(=O)N[C@H](C(=O)O)C(C)C)sc(Br)c1Br` (racemic) [I.07, N-[(4,5-dibromo-3-methyl-2-thienyl)carbonyl]-valine], the chromatographic logP stood at 2.92. Still for that read-out and setting: the value for `CCOC(=O)C1(NC(=O)c2sc(Br)c(Br)c2C)CC1` [I.01, ethyl 1-{[(4,5-dibromo-3-methyl-2-thienyl)carbonyl]amino}cyclopropanecarboxylate] was 3.19; that for `CCOC(=O)C1(NC(=O)c2scc(Br)c2C)CC1` [IXa.01, ethyl 1-{[(4-bromo-3-methyl-2-thienyl)carbonyl]amino}cyclopropanecarboxylate] was 2.57. The compound `COC(=O)c1sc(Cl)c(Cl)c1Br` [VIIIa.02, methyl 3-bromo-4,5-dichlorothiophene-2-carboxylate] displayed a chromatographic logP of 4.11. Still for that read-out and setting: the value for `O=C(O)c1sc(Cl)c(Cl)c1Br` [VIIIa.03, 3-bromo-4,5-dichlorothiophene-2-carboxylic acid] was 2.52; that for `CCOC(=O)CNC(=O)c1sc(Cl)c(Cl)c1Br` [VIa.01, ethyl N-[(3-bromo-4,5-dichloro-2-thienyl)carbonyl]glycinate] was 3.33.

In turn, `Cc1c(C(=O)O)sc(NC(=O)OC(C)(C)C)c1Br` [XIIIa.02, 4-bromo-5-[(tert-butoxycarbonyl)amino]-3-methylthiophene-2-carboxylic acid] came in with a chromatographic logP of 2.86. Same read-out and setting: with `CCOC(=O)C1(NC(=O)c2sc(N)c(Br)c2C)CC1` [Xa.01, ethyl 1-{[(5-amino-4-bromo-3-methyl-2-thienyl)carbonyl]amino}cyclopropanecarboxylate] the figure was 1.97.

Staying with this data set, now noted: reversed phase HPLC columns, method [b]: LC-UV, neutral range, 0.001 molar ammonium acetate solution in water and acetonitrile as eluent.
The compound `CCOC(=O)C1(NC(=O)c2sc(NC(=O)OC(C)(C)C)c(Br)c2C)CC1` [XIa.01, ethyl 1-[({4-bromo-5-[(tert-butoxycarbonyl)amino]-3-methyl-2-thienyl}carbonyl)amino]cyclopropanecarboxylate] had a chromatographic logP of 3.44.

The same data set, now with this note: reversed phase HPLC columns, value given in preparation example; method variant not stated.
In turn, `Cc1c(C(=O)N[C@H](C(=O)O)C(C)C)sc(Br)c1Br` (racemic) [I.07, N-[(4,5-dibromo-3-methyl-2-thienyl)carbonyl]-valine] showed a chromatographic logP of 2.92. In turn, `CCOC(=O)C1(NC(=O)c2sc(Br)c(Br)c2C)CC1` [I.01, ethyl 1-{[(4,5-dibromo-3-methyl-2-thienyl)carbonyl]amino}cyclopropanecarboxylate] came in with a chromatographic logP of 3.22. On the same count and under the same terms, with `COC(=O)c1sc(Cl)c(Cl)c1Br` [VIIIa.02, methyl 3-bromo-4,5-dichlorothiophene-2-carboxylate] the figure was 3.99; with `O=C(O)c1sc(Cl)c(Cl)c1Br` [VIIIa.03, 3-bromo-4,5-dichlorothiophene-2-carboxylic acid], 2.51.

Take `CCOC(=O)CNC(=O)c1sc(Cl)c(Cl)c1Br` [VIa.01, ethyl N-[(3-bromo-4,5-dichloro-2-thienyl)carbonyl]glycinate]: the chromatographic logP worked out at 3.33. As to `CCOC(=O)C1(NC(=O)c2sc(NC(=O)OC(C)(C)C)c(Br)c2C)CC1` [XIa.01, ethyl 1-[({4-bromo-5-[(tert-butoxycarbonyl)amino]-3-methyl-2-thienyl}carbonyl)amino]cyclopropanecarboxylate], the chromatographic logP was 3.28. Same read-out and setting: with `CCOC(=O)C1(NC(=O)c2sc(N)c(Br)c2C)CC1` [Xa.01, ethyl 1-{[(5-amino-4-bromo-3-methyl-2-thienyl)carbonyl]amino}cyclopropanecarboxylate] the figure was 1.92.

Regarding `COC(=O)c1sc(Cl)c(Cl)c1N` [methyl 3-amino-4,5-dichlorothiophene-2-carboxylate], the chromatographic logP amounted to 3.11.

Another data set deals with Xanthomonas campestris pv. campestris. Nature of the data set: Xanthomonas campestris pv. campestris in vitro cell test (bacteria growth in liquid culture). The following applies: 20 ppm of tested compound; 24 h of incubation. In kind it is cell-based. The protocol: Example A: Xanthomonas Campestris pv. Campestris In Vitro Cell Test
Culture medium: LB broth medium (Luria Broth Miller) Sigma
Inoculum: bacteria suspension
Compounds to be tested were solubilized in DMSO and the solution used to prepare the required range of concentrations. The final concentration of DMSO used in the assay was ≤1%.
Inoculum was prepared from a pre-culture of bacteria grown in liquid medium and diluted to the desired optical density (OD).
Compounds were evaluated for their ability to inhibit bacteria growth in liquid culture assay. The compounds were added in the desired concentrations to culture medium containing the bacteria suspension. After 24 h of incubation, the efficacy of compounds was determined by spectrometric measurement of bacteria growth. Inhibition was determined by comparing the absorbance values in wells containing the compounds with the absorbance in control wells without compounds.
With `Cc1c(C(=O)N[C@H](C(=O)O)C(C)C)sc(Br)c1Br` (racemic) [I.07, N-[(4,5-dibromo-3-methyl-2-thienyl)carbonyl]-valine], the “direct activity (inhibition of bacteria growth)” value is “no direct activity”. For the compound `CCOC(=O)C1(NC(=O)c2sc(Br)c(Br)c2C)CC1` [I.01, ethyl 1-{[(4,5-dibromo-3-methyl-2-thienyl)carbonyl]amino}cyclopropanecarboxylate], the “direct activity (inhibition of bacteria growth)” value was “no direct activity”. `Cc1c(C(=O)NC2(C(=O)O)CC2)sc(Br)c1Br` [I.06]: the “direct activity (inhibition of bacteria growth)” value is “no direct activity”. The same measure, in the same setting: the value for `COC(=O)CNC(=O)c1sc(Br)c(Br)c1C` [I.09] was “no direct activity”; that for `CC/C=C\CCOC(=O)C(NC(=O)c1sc(Br)c(Br)c1C)C(C)C` (stereo not drawn) [I.12] was “no direct activity”; that for `CC[C@H](C)[C@H](NC(=O)c1sc(Br)c(Br)c1C)C(=O)OC` [I.22] was “no direct activity”. The same measure, in the same setting: the value for `CCOC(=O)[C@@H](NC(=O)c1sc(Cl)c(Cl)c1C)C(C)C` [I.25] was “no direct activity”; that for `CC[C@H](C)[C@H](NC(=O)c1sc(Cl)c(Cl)c1C)C(=O)OC` [I.32] was “no direct activity”.

As to `CCOC(=O)C(NC(=O)c1sc(Cl)c(Cl)c1C)C(C)C` (stereo not drawn) [I.40], the “direct activity (inhibition of bacteria growth)” value is “no direct activity”. On the same count and under the same terms, the value for `CCOC(=O)C(NC(=O)c1sc(Cl)c(Cl)c1C)C(C)C` (stereo not drawn) [I.44] was “no direct activity”; that for `COC(=O)C1(NC(=O)c2sc(Cl)c(Cl)c2C)CC1` [I.50] was “no direct activity”. Same read-out and setting: the value for `Cc1c(C(=O)NC(C(=O)OCC2CC2)C(C)C)sc(Br)c1Br` (stereo not drawn) [I.52] was “no direct activity”.
